From patent US10105382B2, “Therapy regimen and methods to sensitize cancer cells treated with epigenetic therapy to PARP inhibitors in ovarian cancer” (THE JOHNS HOPKINS UNIVERSITY, priority 2014, dated 2018) come the findings set out here.

Data set [1] concerns KASUMI-1 (AML1-ETO positive). In words: Colony forming (methylcellulose clonogenic) assay in KASUMI-1. It counts as cell-based, Human. The conditions noted are these: ABT888 500 nM, single agent. As to the method: Decitabine (DAC, 21.9 mM in DMSO, Sigma-Aldrich) was further diluted in water just before treatment of the cells with 5 nM, 10 nM or 20 nM of DAC. […] DAC was added every 24 hours for 72 hours with daily medium change, then the drug was washed out and cells were allowed to recover for 4 days (unless indicated otherwise) before further use. At day 7, cells were counted with trypan blue, treated with PARPi's, set in culture in 100 mm plates at a density of 0.2×10^6 cells/mL or in methylcellulose for colony forming assay as described later. At days indicated on the figures, 5- to 10×10^6 viable cells (trypan blue exclusion) were recovered, fast frozen and stored at −80° C. for further use for protein extraction. […]
In order to study if the DAC dependent reprogramming (Tsai et al., 2012) could sensitize AML cells to PARPi's, KASUMI-1, MOLM14 and MV411 cells were first treated with increased doses of DAC (5 nM-20 nM) for three days with daily replacement of drugs and media as described previously (Tsai et al., 2012). […] Ten days later, clonogenic efficiency was measured by counting colonies with more than 40 cells and results were expressed as fold changes compared to controls (CRTL) (FIG. 2).

Data set [2] has as its system MOLM14 (heterozygote for FLT3-ITD). In words: Colony forming (methylcellulose clonogenic) assay in MOLM14. It counts as cell-based, Human. As to the method:
(§1) Decitabine (DAC, 21.9 mM in DMSO, Sigma-Aldrich) was further diluted in water just before treatment of the cells with 5 nM, 10 nM or 20 nM of DAC. […] DAC was added every 24 hours for 72 hours with daily medium change, then the drug was washed out and cells were allowed to recover for 4 days (unless indicated otherwise) before further use. At day 7, cells were counted with trypan blue, treated with PARPi's, set in culture in 100 mm plates at a density of 0.2×10^6 cells/mL or in methylcellulose for colony forming assay as described later. At days indicated on the figures, 5- to 10×10^6 viable cells (trypan blue exclusion) were recovered, fast frozen and stored at −80° C. for further use for protein extraction.
(§2) Colony forming assay: At Day 7 of the experiment, equal numbers of viable cells (KASUMI-1 cells, 10000 cells/dish; MV411, 5000 cells/dish; MOLM14, 1000 cells/dish; Patients #16, 2000 cells/dish, #9, #13 and #15, 5000 cells/dish, #29, 10000 cells/dish, #30, 20000 cells/dish and #34, 40000 cells/dish) were treated as described earlier and plated in triplicate in 33 mm dish on MethoCult H4435 Enriched (StemCell Technologies, Vancouver, British Columbia, Canada) for MNC, or Methylcellulose Stock Solution (R&D Systems, Minneapolis, Minn.) supplemented with culture media for cell lines according to the instructions of the manufacturer. Ten to nineteen days later, colonies were stained with 2-(4-iodophenyl)-3-(4-nitrophenyl)-5-phenlytetrazolium chloride (1 mg/mL) overnight at 37° C. and colonies containing more than 40 cells were quantified using a colony counter and Protocol3 software (Synbiosis, Frederick, Md.).
(§3) In order to study if the DAC dependent reprogramming (Tsai et al., 2012) could sensitize AML cells to PARPi's, KASUMI-1, MOLM14 and MV411 cells were first treated with increased doses of DAC (5 nM-20 nM) for three days with daily replacement of drugs and media as described previously (Tsai et al., 2012). […]

The subject of data set [3] is MV411 (homozygote for FLT3-ITD). Nature of the data set: Colony forming (methylcellulose clonogenic) assay in MV411. It counts as cell-based, Human. As to the method: as §1, §2, §3
The test system of data set [4] is mononuclear cells (MNC) from AML patients. Nature of the data set: Colony forming assay in primary cells from AML patients. The format is cell-based, Human. The conditions noted are these: ABT888 500 nM alone; 3 of 6 patients (#15, #29, #16).
Data set [5] concerns cancer cell lines derived from leukemia, breast, ovarian, and lung. In words: Methylcellulose colony assay in multiple cancer cell lines. It counts as cell-based. As to the method:
(§4) Multiple cancer cell lines derived from leukemia, breast, ovarian, and lung were treated with low dose DAC/5-AZA (10 nM and 5 nM) for 3 days, followed by removal of the drug for 4 days to 7 days, and subsequent plating of cells in methylcellulose to follow self-renewal capability in the presence or absence of the PARP inhibitor ABT888 (500 nM).

The target of data set [6] is T1, PARP1 (Homo sapiens, UniProt P09874).
T1 construct: chromatin extracts from cells X-irradiated (4Gy) to induce DSBs were examined; endogenous in cells; host or cells: MV411 and MOLM14 AML cells
In words: PARP1 trapping in chromatin, Western blot of chromatin extracts of X-irradiated AML cells. The following applies: MV411, ABT888 5 μM alone, 4Gy X-ray, FIG. 15E. It counts as cell-based. For orientation: A western blot detects proteins with antibodies after separation by electrophoresis.
Description: Irradiation: For irradiation (IR) studies, cells were exposed to 4Gy X-Ray radiation using a Pantak HF320 X-Ray machine (250 kV peak, 13 mA; half-value layer, 1.65 mm copper) at a dose rate of 2.4 Gy/min. After IR, cells were allowed to recover from DNA damage for 4 hrs before extraction of protein.
Subcellular fractionation: To isolate the chromatin bound fraction (CH) and soluble nuclear fraction (NUC), a Subcellular Protein Fractionation kit (Thermo Fisher Scientific, Waltham, Mass.) was used by following the instructions of the manufacturer.
Immunoblotting: Immunoblotting was performed following standard procedures using 5 μg of NUC and CH fractions. Proteins were loaded onto a 4%-20% SDS-PAGE gel (Bio-Rad laboratories, Hercules, Calif.), transferred on PVDF membrane (GE Healthcare Life Sciences, Pittsburgh, Pa.) and blots were washed in Tris Buffered Saline-0.1% Tween 20 (TBST) three times, blocked in TBST-5% bovine serum albumin (TBST-BSA) for an hour at least and first antibodies in TBST-BSA were applied overnight at 4° C. on shaker. […]

Data set [7] concerns γH2AX foci. Nature of the data set: γH2AX foci immunofluorescence in MV411. It counts as cell-based, Human. As for the experimental part: Immunofluorescence: AML cells (0.2×10^6 cells) were cytospun onto glass slides for 5 min at 200 rpm in PBS 1× on a Shandon Cytospin 4. Cells were then fixed for 30 min in 4% paraformaldehyde, washed 3 times in DPBS (+CaCl2 and MgCl2, DPBS++), permeabilized for 10 min in permeabilization solution (50 mM NaCl, 3 mM MgCl2, 10 mM HEPES, 200 mM Sucrose and 0.5% Triton X-100 in PBS 1×), washed 3 times in DPBS (+CaCl2, +MgCl2) supplemented with BSA 1% (DPBS-BSA) and then blocked overnight in DPBS++ supplemented with 10% serum. After incubation with mouse monoclonal anti-γH2A.x (1:100, Upstate), rabbit polyclonal anti-RAD51 (1:100, Santa Cruz Biotechnologies, Dallas, Tex.), rabbit Poly-ADP-ribose (PAR, 1:200, Axxora, Farmingdale, N.Y.), or isotypes controls for an hour at 37° C. in DPBS-BSA, cells were washed and then incubated with Dylight 594-anti-mouse and Dylight 488-anti rabbit (1:200, KPL, Gaithersburg, Md.) for an hour at 37° C. prior to counterstaining with 4′,6 diamidino-2-phenylindole, dihydrochloride (DAPI, 0.3 μg/mL, Promega, Madison, Wis.) in mounting media (Vectashield, Vector Laboratories, Burlingame, Calif.). Slides were examined using a Nikon fluorescent microscope Eclipse 80i (100×/1.4 oil, Melville, N.Y.). Images of at least 50 cells/slide were captured using a CCD (charge-coupled device) camera and the imaging software NIS Elements (BR 3.00, Nikon).

In data set [8] the test system is MV411. In words: cells. The following applies: Homo sapiens, MV4-11, 72 h.
Protocol: (§6) Four hours prior to evaluation, 20 μL of MTS labelling reagent ([3-(4, 5-dimethylthiazol-2-yl)-5-(3-carboxymethoxyphenyl)-2-(4-sulfophenyl)-2H-tetrazolium, MTS supplemented with phenazine methosulfate, PMS, Promega, Madison, Wis.) was added to each well. The results were quantified using a VersaMax Elisa Microplate Reader at a wavelength of 490 nm and SoftMax®Pro software (Molecular Devices, Sunnyvale, Calif.). Results (fold changes compared to CRTL) are representative of the mean±SEM of three independent experiments in triplicate.
(§7) Four hours prior to evaluation, 20 μL of MTS labelling reagent ([3-(4,5-dimethylthiazol-2-yl)-5-(3-carboxymethoxyphenyl)-2-(4-sulfophenyl)-2H-tetrazolium, MTS supplemented with phenazine methosulfate, PMS, Promega, Madison, Wis.) was added to each well. The results were quantified using a VersaMax Elisa Microplate Reader at a wavelength of 490 nm and SoftMax®Pro software (Molecular Devices, Sunnyvale, Calif.). Results (Fold changes compared to CRTL) are representative of the mean±SEM of three independent experiments in triplicate.
The test system of data set [9] is PARP. The following applies: treatment alone.
Data set [10] concerns MOLM14. Nature of the data set: cells. The conditions noted are these: Homo sapiens, MOLM-14, 72 h.
Protocol: as §6, §7
Data set [11] relates to MCF7. Nature of the data set: Clonogenicity of breast cancer cells MCF7. The format is cell-based. The conditions noted are these: 5AZA alone. As to the method: (§5) There were 7 days of recovery between the DNMTi and PARPi treatment;
as §4

The subject of data set [12] is MDA MB231. Nature of the data set: Clonogenicity of breast cancer cells MDA MB231. It counts as cell-based. The conditions noted are these: 5AZA alone. As for the experimental part: as §5, §4
For data set [13], the system named is HCC1937. Nature of the data set: Clonogenicity of breast cancer cells HCC1937. The format is cell-based. The conditions noted are these: 5AZA alone. As to the method:
as §5, §4

Data set [14] has as its system A2780. In words: Clonogenicity of ovarian cancer cells A2780. The format is cell-based. The conditions noted are these: 5AZA alone. As to the method: as §5, §4
In data set [15] the test system is OVCAR3. In words: Clonogenicity of ovarian cancer cells OVCAR3. It counts as cell-based. The following applies: 5AZA alone. As to the method: as §5, §4
Data set [16] deals with normal bone marrow (NBM). In words: Colony survival of normal bone marrow. The format is cell-based. The following applies: drug concentrations used; BMN 1 nM in FIG. 18. As to the method: Colony forming assay: At Day 7 of experiment, equal numbers of viable cells (KASUMI-1 cells 10000 cells/dish; MV411 3000 cells/dish; MOLM14 1000 cells/dish; Patients #16, 2000 cells/dish, #9, #13 and #15, 5000 cells/dish, #29, 10000 cells/dish, #30, 20000 cells/dish and #34, 40000 cells/dish) were treated as described earlier and plated in triplicate in 33 mm dish on MethoCult H4435 Enriched (StemCell Technologies, Vancouver, British Columbia, Canada) for MNC, or Methylcellulose Stock Solution (R&D Systems, Minneapolis, Minn.) supplemented with culture media for cell lines according to the instructions of the manufacturer. Ten to nineteen days later, colonies were stained with 2-(4-iodophenyl)-3-(4-nitrophenyl)-5-phenlytetrazolium chloride (1 mg/mL) overnight at 37° C. and colonies containing more than 40 cells were quantified using colony counter and Protocol3 software (Synbiosis, Frederick, Md.).

Setting [17] is: BMN673 between 10 nM and 100 nM.

The IC50 is the concentration that inhibits the measured activity by half.

Molecules are shown by their SMILES.

T1 sequence (P09874 whole entry): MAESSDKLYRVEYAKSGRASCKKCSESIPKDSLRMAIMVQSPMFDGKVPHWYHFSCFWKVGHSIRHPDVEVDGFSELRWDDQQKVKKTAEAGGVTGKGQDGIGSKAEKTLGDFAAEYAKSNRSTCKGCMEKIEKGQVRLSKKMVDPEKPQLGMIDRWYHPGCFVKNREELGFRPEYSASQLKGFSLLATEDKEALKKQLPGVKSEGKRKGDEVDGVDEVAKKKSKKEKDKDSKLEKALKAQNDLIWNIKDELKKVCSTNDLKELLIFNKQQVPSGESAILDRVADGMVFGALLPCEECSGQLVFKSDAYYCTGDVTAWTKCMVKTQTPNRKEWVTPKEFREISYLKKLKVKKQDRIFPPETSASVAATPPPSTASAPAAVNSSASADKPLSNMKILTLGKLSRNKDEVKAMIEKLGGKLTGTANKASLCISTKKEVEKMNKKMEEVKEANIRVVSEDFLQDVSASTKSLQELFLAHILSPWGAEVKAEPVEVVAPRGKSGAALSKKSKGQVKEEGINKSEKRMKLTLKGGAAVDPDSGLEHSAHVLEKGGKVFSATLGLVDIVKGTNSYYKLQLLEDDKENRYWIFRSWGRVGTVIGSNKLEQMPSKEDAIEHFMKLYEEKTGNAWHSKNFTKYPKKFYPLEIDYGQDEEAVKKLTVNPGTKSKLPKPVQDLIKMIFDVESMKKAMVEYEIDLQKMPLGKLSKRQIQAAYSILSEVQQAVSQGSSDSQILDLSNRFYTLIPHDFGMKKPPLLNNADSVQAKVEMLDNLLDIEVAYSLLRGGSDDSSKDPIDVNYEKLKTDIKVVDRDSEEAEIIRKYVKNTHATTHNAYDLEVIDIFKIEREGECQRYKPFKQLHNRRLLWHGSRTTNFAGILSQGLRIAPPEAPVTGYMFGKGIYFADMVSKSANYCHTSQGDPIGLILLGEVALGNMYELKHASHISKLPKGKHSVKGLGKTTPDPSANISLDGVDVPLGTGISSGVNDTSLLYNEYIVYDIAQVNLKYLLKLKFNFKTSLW

Turning to `C[C@]1(c2nc3c(C(N)=O)cccc3[nH]2)CCCN1` [ABT888, Veliparib], the “colony number vs CRTL” value in data set [1] was “not significantly affected”; in [2] (ABT888 500 nM, single agent) it was “significant reduction of colony numbers”; in data set [3] (ABT888 500 nM, single agent), “significant reduction of colony numbers”. Also, the “responders: patients with decreased colony number” value in [4] is given as 50%. Moreover, the colony numbers entry in data set [5] (ABT888 500 nM alone) is listed as “has an effect in some cases”. In addition, in [6], the “PARP trapping into chromatin” value is recorded as “traps PARP into chromatin”. Moreover, the γH2AX foci result in [7] (MV411, ABT888 5 μM alone) is on record as “an increase in foci”. Besides, the IC50 in [8] and in data set [10] was > 25 µM each time. Moreover, the PARP activity entry in data set [9] is “decreases PARP activity”.

Consider `Nc1ncn([C@@H]2O[C@H](CO)[C@@H](O)[C@H]2O)c(=O)n1` [5AZA, 5-azacitidine], for which the colony numbers entry in [5] (DAC/5-AZA (10 nM and 5 nM) for 3 days alone) is recorded as “significant decrease in colony numbers”. Moreover, the clonogenicity entry in data set [11], in data set [12], in data set [13], in data set [14] and in data set [15] was “decreased” throughout. In addition, the PARP activity result in [9] is “decreases PARP activity”.

For the compound `Cn1ncnc1[C@H]1c2n[nH]c(=O)c3cc(F)cc(c23)N[C@@H]1c1ccc(F)cc1` [BMN673], the “sensitivity in clonogenic assay” value in data set [2] (BMN673 1 nM) is recorded as “cytotoxity occurring”; in data set [3] (BMN673 1 nM) it was “barely sensitive”. Besides, the colony formation result in data set [2] (setting [17]) and in [3] (setting [17]) was “profoundly inhibited colony formation” throughout. Besides, the “colony survival of normal bone marrow” value in data set [16] is “not affected”. Moreover, in data set [7] (MV411, BMN673 10 nM alone), the γH2AX foci entry is on record as “an increase in foci”. Moreover, the IC50 in data set [8] is 6.45 µM; in data set [10], 4.46 µM.
